What was measured:
[1] = compound: CCN(CCO)CCCOc1ccc2c(Nc3cc(CC(=O)Nc4cccc(F)c4)[nH]n3)ncnc2c1 [AZD2811]; conditions: max 1 µM
Method in brief: (§1)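 Following 24 hours at 37°C and 5% CO2, cancer cell lines in 1536-well plates with 7.5 μl DMEM/F12 or RPMI and 10% FBS were dosed for 72 hours, final DMSO typically being 0.2%. CellTiter-Glo 2.0 luminescence, scaled between blank-well and DMSO-well means, gave the viability readout. Dose responses were fitted to a two-parameter logistic curve with a non-linear mixed effects model, and the single-agent IC50 was derived from this fit.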

[2] = compound: Cc1c2c(nn1C)CSCc1cc(n(C)n1)CSc1cc(c3ccccc3c1)OCCCc1c(C(=O)O)n(C)c3c-2c(Cl)ccc13 [AZD5991]; conditions: max 1 µM
Method in brief: as §1

[3] = compound: COc1cc2ncnc(Nc3ccc(F)c(Cl)c3)c2cc1OCCCN1CCOCC1 [Gefitinib]; conditions: max 10 µM
Method in brief: as §1

[4] = compound: COc1nnc2ccc(N3CCC(c4ccc(OCCN5CCN(C)C(=O)[C@H]5C)cc4)CC3)nn12 [AZD5153]; conditions: max 1 µM
Method in brief: as §1

[5] = compound: CCc1c2c(nc3ccc(O)cc13)-c1cc3c(c(=O)n1C2)COC(=O)[C@]3(O)CC [SN-38]; conditions: max 0.3 µM
Method in brief: as §1

[6] = compound: CS(=O)(=O)CCNCc1ccc(-c2ccc3ncnc(Nc4ccc(OCc5cccc(F)c5)c(Cl)c4)c3c2)o1 [Lapatinib]; conditions: max 10 µM
Method in brief: as §1

[7] = compound: COc1cccc(OCCCN)c1-c1cc(Nc2cnc(C#N)cn2)n[nH]1 [Prexasertib]; conditions: max 1 µM
Method in brief: as §1

[8] = compound: COc1cccc2c1C(=O)c1c(O)c3c(c(O)c1C2=O)C[C@@](O)(C(=O)CO)C[C@@H]3O[C@H]1C[C@H](N)[C@H](O)[C@H](C)O1 [Doxorubicin]; conditions: max 1 µM
Method in brief: as §1

[9] = compound: Cc1cc2ncnn2cc1Nc1ncc2c(n1)n(C1CCOCC1)c(=O)n2C [AZD7648]; conditions: max 10 µM
Method in brief: as §1

[10] = compound: CC1(C)CCC(CN2CCN(c3ccc(C(=O)NS(=O)(=O)c4ccc(NCC5CCOCC5)c([N+](=O)[O-])c4)c(Oc4cnc5[nH]ccc5c4)c3)CC2)=C(c2ccc(Cl)cc2)C1 [Venetoclax]; conditions: max 1 µM
Method in brief: as §1

[11] = compound: CC1=C(C(=CC=C1)Cl)NC(=O)C2=CN=C(S2)NC3=CC(=NC(=N3)C)N4CCN(CC4)CCO [Dasatinib]; conditions: max 2 µM
Method in brief: as §1

[12] = compound: C[C@@H](Oc1cc(-c2cnn(C3CCNCC3)c2)cnc1N)c1c(Cl)ccc(F)c1Cl [Crizotinib]; conditions: max 10 µM
Method in brief: as §1

[13] = compound: C1CN(CCC1(C(=O)N[C@@H](CCO)C2=CC=C(C=C2)Cl)N)C3=NC=NC4=C3C=CN4 [Capivasertib]; conditions: max 10 µM
Method in brief: as §1

[14] = compound: C[C@@H]1COCCN1C2=NC(=NC(=C2)C3(CC3)[S@](=N)(=O)C)C4=C5C=CNC5=NC=C4 [AZD6738]; conditions: max 10 µM
Method in brief: as §1

[15] = compound: Cc1nc(-c2cn3c(n2)-c2ccc(-c4cnn(C(C)(C)C(N)=O)c4)cc2OCC3)n(C(C)C)n1 [Taselisib]; conditions: max 10 µM
Method in brief: as §1

[16] = compound: CN(CC[C@H](CSC1=CC=CC=C1)NC2=C(C=C(C=C2)S(=O)(=O)NC(=O)C3=CC=C(C=C3)N4CCC(CC4)[C@H](C5=CC=CC=C5C6=CC=C(C=C6)Cl)O)S(=O)(=O)C(F)(F)F)CCO [AZD4320]; conditions: max 1 µM
Method in brief: as §1

[17] = compound: CN(C)CCCOc1ccc(-c2ccc3ncc4c(c3c2)n(C2CCOCC2)c(=O)n4C)cn1 [AZD0156]; conditions: max 3 µM
Method in brief: as §1

[18] = compound: C[C@@H](c1ccc2nccn2c1)n1nnc2ncc(-c3cnn(C)c3)nc21 [Savolitinib]; conditions: max 1 µM
Method in brief: as §1

[19] = compound: Cn1cnc2c(F)c(Nc3ccc(Br)cc3Cl)c(C(=O)NOCCO)cc21 [Selumetinib]; conditions: max 10 µM
Method in brief: as §1

[20] = compound: COc1cc(Nc2ncc3c(n2)-c2ccc(Cl)cc2C(c2c(F)cccc2OC)=NC3)ccc1C(=O)O [Alisertib]; conditions: max 10 µM
Method in brief: as §1

[21] = compound: CC1=CN2[C@@H](C1)C=NC3=CC(=C(C=C3C2=O)OC)OCCCCCOC4=C(C=C5C(=C4)N=C[C@@H]6CC(=CN6C5=O)C)OC [SG3199]; conditions: max 0.001 µM
Method in brief: as §1

[22] = compound: CC(C)n1c(=O)n(C)c2cnc3cc(F)c(-c4ccc(OCCCN5CCCCC5)nc4)cc3c21 [AZD1390]; conditions: max 0.3 µM
Method in brief: as §1

[23] = compound: CC(=O)Nc1cccc(-n2c(=O)n(C3CC3)c(=O)c3c(Nc4ccc(I)cc4F)n(C)c(=O)c(C)c32)c1 [Trametinib]; conditions: max 1 µM
Method in brief: as §1

[24] = compound: CC(=O)c1c(C)c2cnc(Nc3ccc(N4CCNCC4)cn3)nc2n(C2CCCC2)c1=O [Palbociclib]; conditions: max 10 µM
Method in brief: as §1

[25] = compound: C[C@@H](Nc1cc(F)cc(F)c1)c1cc(C(=O)N(C)C)cc2c(=O)cc(N3CCOCC3)oc12 [AZD8186]; conditions: max 3 µM
Method in brief: as §1

[26] = compound: C=CCn1c(=O)c2cnc(Nc3ccc(N4CCN(C)CC4)cc3)nc2n1-c1cccc(C(C)(C)O)n1 [AZD1775]; conditions: max 3 µM
Method in brief: as §1

[27] = compound: O=C(c1cc(Cc2n[nH]c(=O)c3ccccc23)ccc1F)N1CCN(C(=O)C2CC2)CC1 [Olaparib]; conditions: max 10 µM
Method in brief: as §1

Cell Line	IC50, cell viability 72 h [1]	IC50, cell viability 72 h [2]	IC50, cell viability 72 h [3]	IC50, cell viability 72 h [4]	IC50, cell viability 72 h [5]	IC50, cell viability 72 h [6]	IC50, cell viability 72 h [7]	IC50, cell viability 72 h [8]	IC50, cell viability 72 h [9]	IC50, cell viability 72 h [10]	IC50, cell viability 72 h [11]	IC50, cell viability 72 h [12]	IC50, cell viability 72 h [13]	IC50, cell viability 72 h [14]	IC50, cell viability 72 h [15]	IC50, cell viability 72 h [16]	IC50, cell viability 72 h [17]	IC50, cell viability 72 h [18]	IC50, cell viability 72 h [19]	IC50, cell viability 72 h [20]	IC50, cell viability 72 h [21]	IC50, cell viability 72 h [22]	IC50, cell viability 72 h [23]	IC50, cell viability 72 h [24]	IC50, cell viability 72 h [25]	IC50, cell viability 72 h [26]	IC50, cell viability 72 h [27]
SNU-1 (Gastric Carcinoma)	> 1000 nM	938 nM	> 10000 nM	265 nM	12.9 nM	> 10000 nM	97.1 nM	237 nM	> 10000 nM	> 1000 nM	> 2000 nM	> 10000 nM	> 10000 nM	5010 nM	9030 nM	> 1000 nM	> 3000 nM	> 1000 nM	> 10000 nM	> 10000 nM	> 1 nM	> 300 nM	757 nM	> 10000 nM	> 3000 nM	1350 nM	> 10000 nM
SUP-HD1 (Hodgkin's Lymphoma)	995 nM	516 nM	> 10000 nM	224 nM	2.49 nM	> 10000 nM	15.5 nM	99.6 nM	> 10000 nM	15.6 nM	> 2000 nM	6540 nM	7900 nM	4040 nM	5270 nM	12.6 nM	> 3000 nM	> 1000 nM	> 10000 nM	5400 nM	> 1 nM	> 300 nM	> 1000 nM	> 10000 nM	> 3000 nM	1330 nM	> 10000 nM
TOV-21G (Ovarian Carcinoma)	> 1000 nM	> 1000 nM	> 10000 nM	334 nM	148 nM	> 10000 nM	299 nM	> 1000 nM	> 10000 nM	> 1000 nM	139 nM	9300 nM	1550 nM	3650 nM	6230 nM	> 1000 nM	> 3000 nM	> 1000 nM	> 10000 nM	2950 nM	> 1 nM	> 300 nM	> 1000 nM	> 10000 nM	> 3000 nM	754 nM	> 10000 nM

Reference: the supplement of paper PMC11061612
